# Where a SMILES comes first, the peptide text is derived from it. Bridges are numbered along the chain shown (N, C = ends). [ ]: non-standard residue; d: D form. The star is where a group is joined. X1 = CC[C@H](C)CCCCC(=O)*; Dab = NCC[C@H](N)C(=O)O
# Tested on: mucin from the porcine stomach
# Assay: PMB binding to mucin by ultracentrifugation in CAMHB with 1% mucin
# Format: in vitro ADME
# Design: Unbound conc.: unit not given here
# Description: Mucin from the porcine stomach was obtained from Sigma-Aldrich (Merck KGaA, Saint-Quentin Fallavier, France) and solubilized in NaCl 0.9% to obtain a solution at 20% (pH adjusted to 7). The solution was autoclaved at 110°C for 15 minutes.
# PMB solutions at concentrations ranging from 0.5 to 10,000 mg/L in CAMHB with 1% mucin were incubated for 1 h at 35°C, then ultracentrifuged at ~290 000 g for 5 h at room temperature (Beckman Optima LE-80K, rotor: Beckman Coulter 70.1 Ti), according to a method previously described ([35]). Unbound PMB concentrations in the supernates were determined by LC-MS/MS (method adapted from a previous publication ([36]) and detailed in Supplemental material) and used to determine the unbound fraction (fu) of PMB. Potential PMB sedimentation ([37]) during experimentation was determined from PMB solutions prepared in mucin-free CAMHB and subjected to the same ultracentrifugation conditions as previously described, and then used to correct for unbound PMB concentrations.
# The same procedure was performed with a nonautoclaved mucin solution. Experiments were done in triplicate.
# The relationship between fu and PMB total concentrations was modeled according to a sigmoidal Emax function (equation 1):
# (1) fu=E0+ Imax × C^ε/IC50ε+ C^ε,
# where E0 represents the minimum fu, Imax the maximum increase in fu, IC50 (mg/L) corresponds to PMB total concentration needed to reach 50% of Imax, C (mg/L) to the PMB total concentration, and ε to the Hill coefficient.
# Parameter estimation was performed using nonlinear regression with iteratively reweighted least squares (R, version 4.1.3 – Package: robustbase, version 0.99–0). Two sets of parameters were estimated, one for the data generated with autoclaved mucin, another for the data generated without autoclave. The two sets of parameters were compared using ANOVA testing.
# [1] = equation 1 fit, all data pooled, value (variance) in Table 1, CAMHB + 1% mucin, ultracentrifugation, LC-MS/MS, triplicate
# [2] = equation 1 fit, autoclaved mucin data
# [3] = equation 1 fit, non-autoclaved mucin data
# [4] = simulated with equation 1, autoclaved mucin parameters, total conc. 0.5, CAMHB + 1% mucin
# [5] = simulated with equation 1, autoclaved mucin parameters, total conc. 1, CAMHB + 1% mucin
# [6] = simulated with equation 1, autoclaved mucin parameters, total conc. 2, CAMHB + 1% mucin
# [7] = simulated with equation 1, autoclaved mucin parameters, total conc. 4, CAMHB + 1% mucin
# [8] = simulated with equation 1, autoclaved mucin parameters, total conc. 8, CAMHB + 1% mucin
# [9] = simulated with equation 1, autoclaved mucin parameters, total conc. 10, CAMHB + 1% mucin
# [10] = simulated with equation 1, autoclaved mucin parameters, total conc. 50, CAMHB + 1% mucin
# [11] = simulated with equation 1, autoclaved mucin parameters, total conc. 100, CAMHB + 1% mucin
# [12] = simulated with equation 1, autoclaved mucin parameters, total conc. 500, CAMHB + 1% mucin
# [13] = simulated with equation 1, autoclaved mucin parameters, total conc. 1000, CAMHB + 1% mucin
# [14] = simulated with equation 1, autoclaved mucin parameters, total conc. 5000, CAMHB + 1% mucin
# [15] = simulated with equation 1, autoclaved mucin parameters, total conc. 10000, CAMHB + 1% mucin
# [16] = simulated with equation 1, non-autoclaved mucin parameters, total conc. 0.5, CAMHB + 1% mucin
# [17] = simulated with equation 1, non-autoclaved mucin parameters, total conc. 1, CAMHB + 1% mucin
# [18] = simulated with equation 1, non-autoclaved mucin parameters, total conc. 2, CAMHB + 1% mucin
# [19] = simulated with equation 1, non-autoclaved mucin parameters, total conc. 4, CAMHB + 1% mucin
# [20] = simulated with equation 1, non-autoclaved mucin parameters, total conc. 8, CAMHB + 1% mucin
# [21] = simulated with equation 1, non-autoclaved mucin parameters, total conc. 10, CAMHB + 1% mucin
# [22] = simulated with equation 1, non-autoclaved mucin parameters, total conc. 50, CAMHB + 1% mucin
# [23] = simulated with equation 1, non-autoclaved mucin parameters, total conc. 100, CAMHB + 1% mucin
# [24] = simulated with equation 1, non-autoclaved mucin parameters, total conc. 500, CAMHB + 1% mucin
# [25] = simulated with equation 1, non-autoclaved mucin parameters, total conc. 1000, CAMHB + 1% mucin
# [26] = simulated with equation 1, non-autoclaved mucin parameters, total conc. 5000, CAMHB + 1% mucin
# [27] = simulated with equation 1, non-autoclaved mucin parameters, total conc. 10000, CAMHB + 1% mucin
# [28] = simulated with equation 1, pooled data parameters, total conc. 0.5, CAMHB + 1% mucin
# [29] = simulated with equation 1, pooled data parameters, total conc. 1, CAMHB + 1% mucin
# [30] = simulated with equation 1, pooled data parameters, total conc. 2, CAMHB + 1% mucin
# [31] = simulated with equation 1, pooled data parameters, total conc. 4, CAMHB + 1% mucin
# [32] = simulated with equation 1, pooled data parameters, total conc. 8, CAMHB + 1% mucin
# [33] = simulated with equation 1, pooled data parameters, total conc. 10, CAMHB + 1% mucin
# [34] = simulated with equation 1, pooled data parameters, total conc. 50, CAMHB + 1% mucin
# [35] = simulated with equation 1, pooled data parameters, total conc. 100, CAMHB + 1% mucin
# [36] = simulated with equation 1, pooled data parameters, total conc. 500, CAMHB + 1% mucin
# [37] = simulated with equation 1, pooled data parameters, total conc. 1000, CAMHB + 1% mucin
# [38] = simulated with equation 1, pooled data parameters, total conc. 5000, CAMHB + 1% mucin
# [39] = simulated with equation 1, pooled data parameters, total conc. 10000, CAMHB + 1% mucin
smiles,measurement,setting,value
"CC[C@H](C)CCCCC(=O)N[C@@H](CCN)C(=O)N[C@H](C(=O)N[C@@H](CCN)C(=O)N[C@H]1CCNC(=O)[C@H]([C@@H](C)O)NC(=O)[C@H](CCN)NC(=O)[C@H](CCN)NC(=O)[C@H](CC(C)C)NC(=O)[C@@H](Cc2ccccc2)NC(=O)[C@H](CCN)NC1=O)[C@@H](C)O [PMB, polymyxin B] (X1-[Dab]T[Dab][Dab][Dab][dF]L[Dab][Dab]T; lactam 4-C)",PMB bound to mucin,"PMB concentrations encountered in clinical practice, up to 10 mg/L, 1% mucin",approximately 95%
same,"PMB unbound fraction (fu), maximum","PMB total concentration of 200 mg/L (b7) or higher than 200 mg/L, CAMHB + 1% mucin, ultracentrifugation, LC-MS/MS",60%
same,PMB unbound fraction (fu),"PMB total concentrations up to 20 mg/L, CAMHB + 1% mucin, 1 h 35°C, ultracentrifugation ~290 000 g 5 h, LC-MS/MS, triplicate",6%
same,"IC50, PMB total concentration needed to reach 50% of the maximum fu",[1],114.37 (196) mg/L
same,"Imax, maximum PMB fu increase",[1],0.56 (0.0009)
same,"ε, Hill coefficient of fu vs total concentration",[1],1.97 (0.252)
same,IC50 of fu model,[2],104.01 µg/mL
same,"Imax, maximum fu increase",[2],0.56
same,"E0, minimum fu","equation 1 fit, autoclaved mucin data, CAMHB + 1% mucin, ultracentrifugation",0.067
same,IC50 of fu model,[3],126.95 µg/mL
same,"Imax, maximum fu increase",[3],0.57
same,"E0, minimum fu","equation 1 fit, non-autoclaved mucin data, CAMHB + 1% mucin, ultracentrifugation",0.056
same,"E0, minimum PMB fu value","sigmoidal Emax fit of fu vs PMB total concentration (equation 1), all data pooled, value (variance) in Table 1, CAMHB + 1% mucin, 1 h 35°C, ultracentrifugation ~290 000 g 5 h room temperature, LC-MS/MS, triplicate",0.061 (0.0004)
same,Unbound conc.,[4],0.03
same,fu (95% CI),[4],6.7 (0.1 - 13.2) %
same,Unbound conc.,[5],0.07
same,fu (95% CI),[5],6.7 (0.1 - 13.2) %
same,Unbound conc.,[6],0.13
same,fu (95% CI),[6],6.7 (0.1 - 13.2) %
same,Unbound conc.,[7],0.27
same,fu (95% CI),[7],6.7 (0.3 - 13.2) %
same,Unbound conc.,[8],0.55
same,fu (95% CI),[8],6.9 (0.7 - 13.0) %
same,Unbound conc.,[9],0.70
same,fu (95% CI),[9],7.0 (1.0 - 13.0) %
same,Unbound conc.,[10],7.96
same,fu (95% CI),[10],15.9 (7.7 – 24.2) %
same,Unbound conc.,[11],33.4
same,fu (95% CI),[11],33.4 (24.9 – 41.9) %
same,Unbound conc.,[12],304
same,fu (95% CI),[12],60.8 (55.0 - 66.6) %
same,Unbound conc.,[13],621
same,fu (95% CI),[13],62.1 (57.2 – 67.1) %
same,Unbound conc.,[14],3120
same,fu (95% CI),[14],62.5 (57.1 – 67.9) %
same,Unbound conc.,[15],6250
same,fu (95% CI),[15],62.5 (57.1 – 68.0) %
same,Unbound conc.,[16],0.03
same,fu (95% CI),[16],5.6 (2.1 - 9.1) %
same,Unbound conc.,[17],0.06
same,fu (95% CI),[17],5.6 (2.1 - 9.1) %
same,Unbound conc.,[18],0.11
same,fu (95% CI),[18],5.6 (2.2 - 9.1) %
same,Unbound conc.,[19],0.23
same,fu (95% CI),[19],5.7 (2.3 - 9.1) %
same,Unbound conc.,[20],0.48
same,fu (95% CI),[20],5.9 (2.7 - 9.1) %
same,Unbound conc.,[21],0.61
same,fu (95% CI),[21],6.1 (3.0 - 9.2) %
same,Unbound conc.,[22],7.08
same,fu (95% CI),[22],14.2 (10.5 – 17.8) %
same,Unbound conc.,[23],27.9
same,fu (95% CI),[23],27.9 (23.8 – 32.1) %
same,Unbound conc.,[24],293
same,fu (95% CI),[24],58.6 (54.6 - 62.6) %
same,Unbound conc.,[25],615
same,fu (95% CI),[25],61.5 (58.4 – 64.7) %
same,Unbound conc.,[26],3130
same,fu (95% CI),[26],62.7 (58.6 – 66.7) %
same,Unbound conc.,[27],6270
same,fu (95% CI),[27],62.7 (58.6 - 66.9) %
same,Unbound conc.,[28],0.03
same,fu (95% CI),[28],6.1 (2.1 - 10.0) %
same,Unbound conc.,[29],0.06
same,fu (95% CI),[29],6.1 (2.1 - 10.0) %
same,Unbound conc.,[30],0.12
same,fu (95% CI),[30],6.1 (2.2 - 10.0) %
same,Unbound conc.,[31],0.25
same,fu (95% CI),[31],6.1 (2.3 - 10.0) %
same,Unbound conc.,[32],0.51
same,fu (95% CI),[32],6.4 (2.7 - 10.0) %
same,Unbound conc.,[33],0.65
same,fu (95% CI),[33],6.5 (3.0 - 10.1) %
same,Unbound conc.,[34],7.62
same,fu (95% CI),[34],15.2 (10.7 - 19.7) %
same,Unbound conc.,[35],30.4
same,fu (95% CI),[35],30.4 (25.6 - 35.2) %
same,Unbound conc.,[36],296
same,fu (95% CI),[36],59.2 (55.1 - 63.2) %
same,Unbound conc.,[37],613
same,fu (95% CI),[37],61.3 (58.2 - 64.4) %
same,Unbound conc.,[38],3100
same,fu (95% CI),[38],62.1 (58.4 - 65.8) %
same,Unbound conc.,[39],6210
same,fu (95% CI),[39],62.1 (58.3 - 65.8) %

# Reference: PMC12057341, “In vitro pharmacokinetic/pharmacodynamic modeling of the effect of mucin on polymyxin B activity against Acinetobacter baumannii” (Antimicrobial Agents and Chemotherapy, 2025)
